Assays:
5/6 Nx rats [1] = experiment: Soft tissue mineralization by Von Kossa staining in 5/6 Nx rats (Example 4); format: in vivo, rat; settings: 14 days
Source text: Wistar rats (200-250g), fed a 0.6% Ca and 1.2% P diet, were 5/6 nephrectomized (5/6 Nx).

5/6 Nx rats [2] = experiment: Serum PTH, ionized Ca, P and creatinine in 5/6 Nx rats given paricalcitol and/or Compound B (Example 3); settings: 14 days
adenine-induced CKD rats [3] = experiment: PTH and serum chemistry profile in adenine-induced CKD model with vascular calcification; format: in vivo, rat; settings: adenine diet rats, Compound B 3 mg/kg p.o. daily 21 days, vs vehicle
Source text: (§1) Male Sprague-Dawley rats (Charles River Laboratories) weighing 300-350 grams were used in these studies. All animals received standard lab chow (Harlan Teklad, Madison, Wis.) prior to the start of the studies. The standard lab chow was changed to a standard rodent lab chow that contained 0.75% adenine. Animals received food and water ad libitum. The animal protocol was approved by the Institutional Animal Care and Use Committee of Amgen Inc. (Thousand Oaks, Calif.).
(§2) Animals were fed the adenine containing chow for 21 days, and prior to the start of the adenine diet animals were pre-bleed for baseline measurements of ionized calcium, PTH, BUN and creatinine and phosphorus levels (FIG. 9).
Prior to placing animals on an adenine diet or administration of Compound B or vehicle baseline determininations of serum P, Ca, BUN, PTH and creatinine were performed. Blood was removed from the orbital sinus under while the rats were under anesthetisa (2% isoflurane in O2). After the time 0 bleed, animals were placed on the adenine containing chow and were administered Compound B at 3 mg/kg p.o. or vehicle (12% captisol in water) daily for 21 days. At the end of the study (day 21) animals were sacrificed and the aorta and parathyroid glands were removed for histopathological analysis. Blood was removed for blood chemistries and PTH determinations. For measurement of blood ionized calcium levels, blood was collected from the abdominal aorta under anesthesthia (2% isofluorane in O2), prior to sacrifice, with heparinized capillary tubes and analyzed using a Ciba-Corning 634 ISE Ca^++/pH Analyzer (Ciba-Corning Diagnostics Corp, Medfield, Mass.). Separately, blood was collected for PTH, blood urea nitrogen (BUN), creatinine, and serum phosphorus levels into SST (clot activator) brand blood tubes (BD, Franklin Lakes, N.J.) and allowed to clot. Serum was removed and stored at −70° C. until assayed. PTH levels were quantified according to the vendor's instructions using a rat PTH(1-34) immunoradiometric assay kit (Immutopics, San Clemente, CA). BUN, creatinine, and phosphorus levels were determined using a blood chemistry analyzer (Olympus AU 400, Melville, N.Y.).

adenine-induced CKD rats [4] = experiment: Aortic vascular calcification by bone mineral density (PIXImus) in adenine-induced CKD model; format: in vivo, rat; settings: adenine diet rats; Compound B 3 mg/kg p.o. daily 21 days, compared to vehicle on the same diet
Source text: as §1
(§3) Prior to placing animals on an adenine diet or administration of Compound B or vehicle baseline determininations of serum P, Ca, BUN, PTH and creatinine were performed. Blood was removed from the orbital sinus under while the rats were under anesthetisa (2% isoflurane in O2). […] For measurement of blood ionized calcium levels, blood was collected from the abdominal aorta under anesthesthia (2% isofluorane in O2), prior to sacrifice, with heparinized capillary tubes and analyzed using a Ciba-Corning 634 ISE Ca^++/pH Analyzer (Ciba-Corning Diagnostics Corp, Medfield, Mass.). […] PTH levels were quantified according to the vendor's instructions using a rat PTH(1-34) immunoradiometric assay kit (Immutopics, San Clemente, CA). BUN, creatinine, and phosphorus levels were determined using a blood chemistry analyzer (Olympus AU 400, Melville, N.Y.). […]

5/6 Nx rats [5] = experiment: Ca and P content of thoracic aorta in 5/6 Nx rats given paricalcitol and/or Compound B (Example 3); format: in vivo, rat
Source text: Wistar rats (200-250g), fed a 0.6% Ca and 1.2% P diet, were 5/6 nephrectomized (5/6 Nx) or sham-operated (sham).

adenine-induced CKD rats [6] = experiment: Parathyroid hyperplasia (PCNA immunohistochemistry, parathyroid weight) in adenine-induced CKD model; format: in vivo, rat; settings: adenine diet rats, vs vehicle
Source text: as §1, §2
as §3, with “performed.” for “performed. Blood was removed from the orbital sinus under while the rats were under anesthetisa (2% isoflurane in O2).”, “CA).” for “CA). BUN, creatinine, and phosphorus levels were determined using a blood chemistry analyzer (Olympus AU 400, Melville, N.Y.).”

[7] = Compound B 1.5 mg/kg every 48 hr sc to calcitriol-treated 5/6 Nx rats
[8] = 5/6 Nx rats, compared to 5/6 Nx+vehicle
[9] = 5/6Nx rats, paricalcitol 240 ng/kg every 48 hr ip, Compound B 1.5 mg/kg every 48 hr sc
[10] = serum, 5/6Nx rats, paricalcitol 240 ng/kg every 48 hr ip, Compound B 1.5 mg/kg every 48 hr sc
[11] = 5/6 Nx rats, 14 days, compared to vehicle treated 5/6 Nx animals (Compound B also vs sham)
[12] = Compound B administered to paricalcitol treated 5/6 Nx rats, compared to 5/6 Nx rats treated with paricalcitol
[13] = thoracic aorta, 5/6Nx rats, 14 days, paricalcitol 240 ng/kg every 48 hr ip, Compound B 1.5 mg/kg every 48 hr sc

Q: Which results are given for `COc1ccc(CNC(C)c2ccccc2)cc1-c1ccc(C(F)(F)F)cc1` (stereo not drawn) [Compound B, N-((6-(methyloxy)-4′-(trifluoromethyl)-1,1′-biphenyl-3-yl)methyl)-1-phenylethanamine]?
A: Heart mineralization (Von Kossa staining) (5/6 Nx rats [1]; [7]): reduced; Kidney mineralization (Von Kossa staining) (5/6 Nx rats [1]; [7]): reduced; Lung mineralization (Von Kossa staining) (5/6 Nx rats [1]; [7]): reduced; Kidney mineralization (Von Kossa staining) (5/6 Nx rats [1]; Compound B 1.5 mg/kg every 48 hr sc to paricalcitol-treated 5/6 Nx rats): reduced; Blood ionized calcium, change in words (5/6 Nx rats [2]; [8]): no changes; Creatinine, change in words (5/6 Nx rats [2]; [8]): no changes; Serum P levels, change in words (5/6 Nx rats [2]; [8]): no changes; Serum PTH levels, change in words (5/6 Nx rats [2]; [8]): significantly (p<0.05) decreased; Creatinine (5/6 Nx rats [2]; [9]): 0.98 ± 0.1 mg/dL; Ionized Ca (5/6 Nx rats [2]; [9]): 0.93 ± 0.06 mM; P (5/6 Nx rats [2]; [10]): 9.5 ± 1.5 mg/dL; PTH (5/6 Nx rats [2]; [10]): 45 ± 1.8 pg/mL; Serum P levels (adenine-induced CKD rats [3]): no significant (p>0.05) treatment effect; Serum PTH levels (adenine-induced CKD rats [3]; p<0.0001): significantly reduced; Creatinine levels (adenine-induced CKD rats [3]; p<0.05): decrease; Total serum calcium (adenine-induced CKD rats [3]; p=0.0001): significantly reduced; Serum ionized calcium (iCa) (adenine-induced CKD rats [3]; p=0.004): significantly reduced; Blood urea nitrogen (BUN) (adenine-induced CKD rats [3]; p>0.05): no significant treatment effect; Reduction aortic bone mineral density (adenine-induced CKD rats [4]): 75%; Aortic Ca content, change in words (5/6 Nx rats [5]; [11]): did not significantly change; Aortic P content, change in words (5/6 Nx rats [5]; [11]): did not significantly change; Aortic Ca content, change in words (5/6 Nx rats [5]; [12]): significantly (p<0.05) reduced; Aortic P content, change in words (5/6 Nx rats [5]; [12]): significantly (p<0.05) reduced; Aortic Ca (5/6 Nx rats [5]; [13]): 2.6 ± 0.16 mg/g; Aortic P (5/6 Nx rats [5]; [13]): 0.33 ± 0.05 mg/g; Number of PCNA-positive cells (parathyroid) (adenine-induced CKD rats [6]; Compound B 3 mg/kg p.o. daily 3 weeks): significantly (p<0.01) reduced; Parathyroid weights (adenine-induced CKD rats [6]; Compound B 3 mg/kg p.o. daily 21 days): significantly decreased

From patent US20060276534A1, “Methods of decreasing calcification” (Amgen Inc., priority 2005, published 2006)
